Measured values taken from article PMC7571217, “Adenosine Receptor Ligands: Coumarin–Chalcone Hybrids as Modulating Agents on the Activity of hARs” (Molecules, 2020).

What was measured:
[1] = biological target: hA1 (Homo sapiens, UniProt P30542); experiment: biochemical
Experimental: (§1) (5′-N-ethylcarboxamidoadenosine) to hA2A; and specific binding of [^3H]HEMADO (2-(1-hexynyl)-N^6-methyladenosine) to hA3. […] Due to the lack of a suitable radioligand for the hA2B receptor, the potency of antagonists at the hA2B receptor was determined by inhibition of NECA-stimulated adenylyl cyclase activity with increasing concentrations of antagonist.
(§2) The binding affinity for hA1, hA2A, hA3 of the synthetized compounds was evaluated using radioligand competition experiments in CHO cells that were stably transfected with the individual receptor subtypes. […] Due to the lack of a suitable radioligand for the hA2B receptor, the potency of antagonists at the hA2B receptor (expressed on CHO cells) was determined by inhibition of NECA-stimulated adenylyl cyclase activity. The IC50 for inhibition of cAMP (cyclic adenosine monophosphate) production was determined and converted to Ki values using the Cheng and Prusoff equation [56].
(§3) Ki values (dissociation constants) were determined in radioligand competition experiments with 7–8 different concentrations of test compound and each concentration was tested in duplicate. […] The program Prism 6 (GraphPad Software) was used for the analysis of the competition curves.

[2] = biological target: T1, hA2A (Homo sapiens, UniProt P29274); experiment: Radioligand competition binding, [3H]NECA, hA2A in CHO cells; details: [3H]NECA 10 nM
T1 construct: expressed in transfected cells; host or cells: CHO cells (stably transfected)
T1 sequence (P29274 whole entry): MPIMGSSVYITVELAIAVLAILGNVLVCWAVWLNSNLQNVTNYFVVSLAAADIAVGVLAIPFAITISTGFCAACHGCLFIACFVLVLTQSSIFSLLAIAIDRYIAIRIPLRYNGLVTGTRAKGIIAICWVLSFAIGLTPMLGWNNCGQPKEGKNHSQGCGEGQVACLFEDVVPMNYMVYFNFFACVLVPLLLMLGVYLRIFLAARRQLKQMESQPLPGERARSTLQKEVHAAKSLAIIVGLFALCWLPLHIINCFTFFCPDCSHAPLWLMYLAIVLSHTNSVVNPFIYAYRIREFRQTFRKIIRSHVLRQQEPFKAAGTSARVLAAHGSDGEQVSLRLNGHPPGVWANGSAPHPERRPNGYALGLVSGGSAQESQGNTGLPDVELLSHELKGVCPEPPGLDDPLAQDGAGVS
Experimental: as §1, §2, §3

[3] = biological target: T2, hA3 (Homo sapiens, UniProt P0DMS8); experiment: Radioligand competition binding, [3H]HEMADO, hA3 in CHO cells; details: [3H]HEMADO 1 nM, geometric mean of 3 experiments (95% CI)
T2 construct: expressed in transfected cells; host or cells: CHO cells (stably transfected)
T2 sequence (P0DMS8 1-318): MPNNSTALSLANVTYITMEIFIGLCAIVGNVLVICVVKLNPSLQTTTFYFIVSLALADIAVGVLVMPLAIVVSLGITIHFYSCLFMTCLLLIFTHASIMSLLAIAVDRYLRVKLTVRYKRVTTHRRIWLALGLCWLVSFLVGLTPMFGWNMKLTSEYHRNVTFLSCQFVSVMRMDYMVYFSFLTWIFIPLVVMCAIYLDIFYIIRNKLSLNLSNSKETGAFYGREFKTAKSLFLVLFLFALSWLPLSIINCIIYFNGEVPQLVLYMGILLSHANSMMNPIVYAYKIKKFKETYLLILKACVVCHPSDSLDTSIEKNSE
Experimental: as §1, §2, §3

[4] = biological target: T2, hA3; details: radioligand used at 1 nM; ref [44],[45]; cited from earlier work

Chain of hA1 (P30542 whole entry): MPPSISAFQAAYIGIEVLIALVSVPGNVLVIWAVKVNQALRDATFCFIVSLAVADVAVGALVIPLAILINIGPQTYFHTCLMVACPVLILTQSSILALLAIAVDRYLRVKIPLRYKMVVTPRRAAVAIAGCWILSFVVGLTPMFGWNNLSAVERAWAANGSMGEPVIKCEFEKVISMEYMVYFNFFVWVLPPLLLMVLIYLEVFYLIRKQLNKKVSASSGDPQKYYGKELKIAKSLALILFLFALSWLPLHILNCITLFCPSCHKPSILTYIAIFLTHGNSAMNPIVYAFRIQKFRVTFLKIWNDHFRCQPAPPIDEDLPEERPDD

SMILES	Ki [1] [µM]	Ki [2] [µM]	Ki [3] [µM]	melting point [°C]	Kd [4] [µM]
COc1ccc(C(=O)c2cc3ccccc3oc2=O)cc1OC [Compound 1, 3-(3′,4′-Dimethoxybenzoyl)coumarin]	> 100	> 100	> 100	190 to 191	–
COc1ccc2oc(=O)c(C(=O)c3ccc(OC)c(OC)c3)cc2c1 [Compound 2, 6-Methoxy-3-(3′,4′-dimethoxybenzoyl)coumarin]	> 100	> 100	> 100	202 to 203	–
COc1cc(OC)c2cc(C(=O)c3ccc(OC)c(OC)c3)c(=O)oc2c1 [Compound 3, 5,7-Dimethoxy-3-(3′,4′-dimethoxybenzoyl)coumarin]	> 30	–	9.03	210 to 211	–
COc1ccc(C(=O)c2cc3c(OC)cc(OC)cc3oc2=O)cc1 [Compound 4, 5,7-Dimethoxy-3-(4′-methoxybenzoyl)coumarin]	> 100	–	2.49	174 to 175	–
O=C(c1ccc(O)c(O)c1)c1cc2ccccc2oc1=O [Compound 5]	39.5	–	34.5	–	–
O=C(c1ccc(O)c(O)c1)c1cc2cc(O)ccc2oc1=O [Compound 6]	54	–	> 60	–	–
O=C(c1ccc(O)c(O)c1)c1cc2c(O)cc(O)cc2oc1=O [Compound 7]	17.7	–	> 30	–	–
O=C(c1ccc(O)cc1)c1cc2c(O)cc(O)cc2oc1=O [Compound 8, 5,7-Dihydroxy-3-(4′-hydroxybenzoyl)coumarin]	29.1	–	> 60	290 to 292	–
CCCCC#Cc1nc(NC)c2ncn([C@@H]3O[C@H](CO)[C@@H](O)[C@H]3O)c2n1 [[^3H]HEMADO, 2-(1-hexynyl)-N^6-methyladenosine]	–	–	–	–	0.0012
